pKd: −log10 of the molar value.
Assay: Binding affinity to Drosophila HP1 chromodomain by fluorescence polarization assay

Q: With `C[C@H](N)C(=O)N[C@@H](CCCNC(=N)N)C(=O)N[C@H](C(=O)N[C@@H](CCCCN)C(=O)N[C@@H](CCC(N)=O)C(=O)N[C@H](C(=O)N[C@@H](C)C(=O)N[C@@H](CCCNC(=N)N)C(=O)N[C@@H](CCCCN)C(=O)N[C@@H](CO)C(=O)N[C@H](C(=O)NCC(=O)NCC(=O)N[C@@H](CCCCN)C(=O)N[C@@H](C)C(=O)N[C@@H](Cc1ccc(O)cc1)C(=O)O)[C@@H](C)O)[C@@H](C)O)[C@@H](C)O` as the compound, how does the pKd read?
A: < 3.00
